We go through 20 compounds from patent US20200216441A1, “PESTICIDALLY ACTIVE HETEROCYCLIC DERIVATIVES WITH SULFUR CONTAINING SUBSTITUENTS” (SYNGENTA PARTICIPATIONS AG, priority 2017, published 2020).

Assay [1] relates to Euschistus heros (Neotropical Brown Stink Bug). Put plainly: whole plant or invertebrate. It counts as in vivo. Conditions: 120 h, application rate of 200 ppm, N2 nymphs on sprayed soybean leaves, 5 days after infestation, read-out: effect in at least one of the two categories (mortality or growth inhibition).
Assay [2] deals with Diabrotica Balteata (Corn Root Worm). Kind of assay: Diabrotica balteata (Corn Root Worm). Conditions: in Zea mays, 96 h, read-out: effect in at least one of the two categories (mortality or growth inhibition).
The subject of assay [3] is Plutella xylostella (Diamond Back Moth). Kind of assay: whole plant or invertebrate. It counts as in vivo. Conditions: 120 h, application rate of 200 ppm, L2 larvae on treated artificial diet, 5 days after infestation, read-out: effect in at least one of the two categories (mortality or growth inhibition).
For assay [4], the system named is Myzus persicae (Green Peach Aphid). Kind of assay: whole plant or invertebrate. Conditions: foliar, 144 h.
Assay [5] shares this test system. Put plainly: whole plant or invertebrate. It counts as in vivo. Conditions: 144 h, test rate of 24 ppm, systemic, roots of infested pea seedlings in test solution, 6 days.

The structures appear in SMILES notation.

As a reminder, the mortality is the percentage killed. For the compound `CCSc1cc(OC2COC2)cnc1-c1nc2cc(C(F)(F)F)ncc2n1C` [Compound P2, 2-[3-ethylsulfanyl-5-(oxetan-3-yloxy)-2-pyridyl]-3-methyl-6-(trifluoromethyl)imidazo[4,5-c]pyridine], in assay [1], the percent effect (mortality or growth inhibition) at 200 ppm is at least 80%. Besides, the mortality at 200 ppm in assay [2] is at least 80%.

For the compound `CCSc1cc(OC2(C)COC2)cnc1-c1nc2cc(C(F)(F)F)ncc2n1C` [Compound P14, 2-[3-ethylsulfanyl-5-(3-methyloxetan-3-yl)oxy-2-pyridyl]-3-methyl-6-(trifluoromethyl)imidazo[4,5-c]pyridine], the percent effect (mortality or growth inhibition) at 200 ppm in assay [3] is at least 80%. The mortality at 200 ppm in assay [2] is at least 80%.

Take `C#CCOc1cnc(-c2nc3cc(C(F)(F)F)ncc3n2C)c(SCC)c1` [Compound P17, 2-(3-ethylsulfanyl-5-prop-2-ynoxy-2-pyridyl)-3-methyl-6-(trifluoromethyl)imidazo[4,5-c]pyridine]: in assay [2], the mortality at 200 ppm is at least 80%.

As for `CCSc1cc(OCC2CC2)cnc1-c1nc2cc(C(F)(F)F)ncc2n1C` [Compound P23, 2-[5-(cyclopropylmethoxy)-3-ethylsulfanyl-2-pyridyl]-3-methyl-6-(trifluoromethyl)imidazo[4,5-c]pyridine], the percent effect (mortality or growth inhibition) at 200 ppm in assay [3] is at least 80%. Also, the mortality at 200 ppm in assay [4] and in assay [2] was at least 80% each time.

For the compound `CCSc1cc(OCC(C)(C)C)cnc1-c1nc2cc(C(F)(F)F)ncc2n1C` [Compound P25, 2-[5-(2,2-dimethylpropoxy)-3-ethylsulfanyl-2-pyridyl]-3-methyl-6-(trifluoromethyl)imidazo[4,5-c]pyridine], the percent effect (mortality or growth inhibition) at 200 ppm in assay [3] is at least 80%. Also, the mortality at 200 ppm in assay [4] was at least 80%.

With `CCS(=O)(=O)c1cc(OC(SC)C(=O)N(C)C)cnc1-c1nc2cc(C(F)(F)F)ncc2n1C` (stereo not drawn) [Compound P36, 2-[[5-ethylsulfonyl-6-[3-methyl-6-(trifluoromethyl)imidazo[4,5-c]pyridin-2-yl]-3-pyridyl]oxy]-N,N-dimethyl-2-methylsulfanyl-acetamide], the percent effect (mortality or growth inhibition) at 200 ppm in assay [1] was at least 80%.

On to `CCS(=O)(=O)c1cc(OC(SC)C(=O)NC)cnc1-c1nc2cc(C(F)(F)F)ncc2n1C` (stereo not drawn) [Compound P37, 2-[[5-ethylsulfonyl-6-[3-methyl-6-(trifluoromethyl)imidazo[4,5-c]pyridin-2-yl]-3-pyridyl]oxy]-N-methyl-2-methylsulfanyl-acetamide], for which the percent effect (mortality or growth inhibition) at 200 ppm in assay [1] is at least 80%. For the same compound, in assay [4], the mortality at 200 ppm was at least 80%.

Turning to `CCS(=O)(=O)c1cc(OC(C(=O)N(C)C)S(C)(=O)=O)cnc1-c1nc2cc(C(F)(F)F)ncc2n1C` (stereo not drawn) [Compound P38, 2-[[5-ethylsulfonyl-6-[3-methyl-6-(trifluoromethyl)imidazo[4,5-c]pyridin-2-yl]-3-pyridyl]oxy]-N,N-dimethyl-2-methylsulfonyl-acetamide], the mortality at 24 ppm in assay [5] is at least 80%.

With `CCSc1cc(OC(C#N)(CC)CC)cnc1-c1nc2cc(C(F)(F)F)ncc2n1C` [Compound P43, 2-ethyl-2-[[5-ethylsulfanyl-6-[3-methyl-6-(trifluoromethyl)imidazo[4,5-c]pyridin-2-yl]-3-pyridyl]oxy]butanenitrile], in assay [1], the percent effect (mortality or growth inhibition) at 200 ppm is at least 80%.

On to `CCS(=O)(=O)c1cc(OCC(=O)N(C)C)cnc1-c1nc2cc(C(F)(F)F)ncc2n1C` [Compound P51, 2-[[5-ethylsulfonyl-6-[3-methyl-6-(trifluoromethyl)imidazo[4,5-c]pyridin-2-yl]-3-pyridyl]oxy]-N,N-dimethyl-acetamide], for which, in assay [1], the percent effect (mortality or growth inhibition) at 200 ppm was at least 80%. Further, in assay [5], the mortality at 24 ppm was at least 80%.

`CCS(=O)(=O)c1cc(OC(C)(C)C(=O)NC)cnc1-c1nc2cc(C(F)(F)F)ncc2n1C` [Compound P55, 2-[[5-ethylsulfonyl-6-[3-methyl-6-(trifluoromethyl)imidazo[4,5-c]pyridin-2-yl]-3-pyridyl]oxy]-N,2-dimethyl-propanamide] came in with a mortality at 24 ppm in assay [5] of at least 80%. This compound also displayed a mortality at 200 ppm in assay [4] of at least 80%.

`CCS(=O)(=O)c1cc(OC(C)(C)C(=O)N(C)C)cnc1-c1nc2cc(C(F)(F)F)ncc2n1C` [Compound P59, 2-[[5-ethylsulfonyl-6-[3-methyl-6-(trifluoromethyl)imidazo[4,5-c]pyridin-2-yl]-3-pyridyl]oxy]-N,N,2-trimethyl-propanamide] displayed a mortality at 24 ppm in assay [5] of at least 80%.

On to `CCS(=O)(=O)c1cc(OC/C(C)=N/OC)cnc1-c1nc2cc(C(F)(F)F)ncc2n1C` [Compound P64, 1-[[5-ethylsulfonyl-6-[3-methyl-6-(trifluoromethyl)imidazo[4,5-c]pyridin-2-yl]-3-pyridyl]oxy]-N-methoxy-propan-2-imine], for which the percent effect (mortality or growth inhibition) at 200 ppm in assay [1] and in assay [3] was at least 80% throughout. Besides, the mortality at 200 ppm in assay [4] is at least 80%.

For the compound `CCSc1cc(OC(C)(C)C(N)=O)cnc1-c1nc2cc(C(F)(F)F)ncc2n1C` [Compound P77, 2-[[5-ethylsulfanyl-6-[3-methyl-6-(trifluoromethyl)imidazo[4,5-c]pyridin-2-yl]-3-pyridyl]oxy]-2-methyl-propanamide], in assay [1], the percent effect (mortality or growth inhibition) at 200 ppm was at least 80%.

Regarding `CCS(=O)(=O)c1cc(OCc2cc(C3CC3)no2)cnc1-c1nc2cc(C(F)(F)F)ncc2n1C` [Compound P83, 3-cyclopropyl-5-[[5-ethylsulfonyl-6-[3-methyl-6-(trifluoromethyl)imidazo[4,5-c]pyridin-2-yl]-3-pyridyl]oxymethyl]isoxazole], the percent effect (mortality or growth inhibition) at 200 ppm in assay [1] and in assay [3] was at least 80% each time. In assay [2], the mortality at 200 ppm was at least 80%.

Take `CCS(=O)(=O)c1cc(OS(=O)(=O)C(F)F)cnc1-c1nc2cc(C(F)(F)F)ncc2n1C` [Compound P91, [5-ethylsulfonyl-6-[3-methyl-6-(trifluoromethyl)imidazo[4,5-c]pyridin-2-yl]-3-pyridyl] difluoromethanesulfonate]: the mortality at 200 ppm in assay [2] was at least 80%.

Turning to `CCS(=O)(=O)c1cc(OS(C)(=O)=O)cnc1-c1nc2cc(C(F)(F)F)ncc2n1C` [Compound P93, [5-ethylsulfonyl-6-[3-methyl-6-(trifluoromethyl)imidazo[4,5-c]pyridin-2-yl]-3-pyridyl] methanesulfonate], in assay [3], the percent effect (mortality or growth inhibition) at 200 ppm was at least 80%. The same compound yielded a mortality at 200 ppm in assay [4] of at least 80%.

For the compound `CCS(=O)(=O)c1cc(OCc2ccccc2)cnc1-c1nc2cc(C(F)(F)F)ncc2n1C` [Compound P94, 2-(5-benzyloxy-3-ethylsulfonyl-2-pyridyl)-3-methyl-6-(trifluoromethyl)imidazo[4,5-c]pyridine], the mortality at 200 ppm in assay [2] is at least 80%.

With `C=CCOc1cnc(-c2nc3cc(C(F)(F)F)ncc3n2C)c(SCC)c1` [Compound P95, 2-(5-allyloxy-3-ethylsulfanyl-2-pyridyl)-3-methyl-6-(trifluoromethyl)imidazo[4,5-c]pyridine], in assay [2], the mortality at 200 ppm is at least 80%.

Turning to `CCS(=O)(=O)c1cc(OC(F)(F)CBr)cnc1-c1nc2cc(C(F)(F)F)ncc2n1C` [Compound P109, 2-[5-(2-bromo-1,1-difluoro-ethoxy)-3-ethylsulfonyl-2-pyridyl]-3-methyl-6-(trifluoromethyl)imidazo[4,5-c]pyridine], the percent effect (mortality or growth inhibition) at 200 ppm in assay [3] was at least 80%.
